Test results reported in patent publication US11103602B2, “PET imaging of zinc transport” (Mayo Foundation for Medical Education and Research, priority 2013, dated 2021).
Where “and” joins values, the source holds several entries; their conditions need not be identical. Equal entries are not always repeated. Each block holds one compound with its values, some of them ahead of it.

Assays:
[1] = cited from earlier work
[2] = Pharmacokinetics of ^63Zn Citrate in blood and plasma of an Alzheimer's disease patient; type: in vivo, human
Experimental: Venous blood samples were taken in heparinized tubes after injection of radiotracer. The samples were centrifuged, and plasma separated. The curves show a rapid clearance of ^63Zn from the blood that is completed by 90 minutes. After this time, the concentrations of ^63Zn in both plasma and whole blood are relatively constant. The concentration of ^63Zn in whole-blood rises relative to plasma to reach equilibrium at around 90 minutes post-injection.

[3] = Biodistribution of ^63Zn citrate in normal mice; type: in vivo
Experimental: Uptake may be measured in units of Standardized Uptake Value (SUV)=(uptake/g tissue)/(injected dose/g body mass).
Biodistribution characteristics of ^63Zn citrate were investigated in male B6.SJL mice (n=4) (Jackson Laboratories, Bar Harbor, Me., USA) under the approval of the Mayo Clinic Institutional Animal Care and Use Committee. Animals were administered ^63Zn citrate (˜1.8-3.6 MBq) into a tail vein and euthanized at 60 minutes for biodistribution analysis. Tissues were weighed and counted for radioactivity. Biodistribution data were expressed as Standard Uptake Value (SUV)=(counts/g)tissue/(injected dose counts/wt. of mouse (g)).
Biodistribution data was expressed as mean±sd. Statistical comparison of analytical data between groups of runs was performed using the two-tailed Student's T-test. Statistical comparison of intracerebral regional uptake of ^63Zn was performed using ANOVA. P-values <0.05 were considered statistically significant.

[4] = PET images of ^63Zn Citrate in human subjects; type: in vivo
Excerpt: High uptake is seen in liver, pancreas, spleen, intestines, and thyroid.

[5] = Pharmacokinetics of ^63Zn Citrate in cerebral cortical region of interest; type: in vivo, human; conditions: for Vascular clearance phase in cerebral cortical region of interest: post-injection
[6] = Biodistribution of ^63Zn citrate in normal mice; type: in vivo; remark: listed apart in the source
[7] = brain at 30 minutes; vs Be, Sc, V, Cr, Mn, Fe, Co, As, Se, Rb, Sr, Y, Zr, Tc, Ru; cited from earlier work
[8] = mean of normal mice, 1 hour after IV
[9] = subject with Alzheimer's disease
[10] = individual normal (Wild) mice 1-5, 1 hour after IV
[11] = individual normal (Wild) mice 3-5, 1 hour after IV
[12] = mean of normal mice, 1 hour after IV, listed as 63Zn
[13] = mean of normal mice, 1 hour after IV, listed as 63Zn Citrate

SMILES: CN(C)Cc1ccc2c(Cl)cc(Cl)c(O)c2n1 [PBT2]
Levels of AβO and p-Tau in the cerebrospinal fluid (CSF) ([1]; AD patients treated for a 12-week period): significantly decreased
Cognitive test scores ([1]; AD patients, 12-week period, highest dose level (250 mg daily)): significant improvement

Time at which whole-blood concentration relative to plasma reaches equilibrium ([2]; post-injection): around 90 minutes
Time by which clearance from the blood is completed ([2]; venous blood samples after injection): ≤ 90 min
SUV, Kidney, Average [3, 8]: 4.2±1.3 SUV and 4.21 ± 1.30 SUV
Uptake in pancreas, liver, kidneys, upper intestines, prostate and seminal vesicles (in words) ([3]; normal mice, 1 hour after IV): high uptake
Uptake in brain regions (regional SUVs) ([3]; normal mice, 1 hour after IV, span over brain regions): 0.2-0.5 SUV
Murine brain uptake (in words) ([3]; normal mice, 60 minutes): moderately low, but significant
Uptake in cerebral cortex, prostate, pituitary gland, and salivary glands (PET) ([4]; Alzheimer's disease subject): Moderate to low uptake
Uptake in liver, pancreas, spleen, intestines, and thyroid (PET) ([4]; Alzheimer's disease subject): High uptake
Uptake in cerebral cortex, pituitary gland, and salivary glands (PET) ([4]; healthy elderly human subject): Moderate to low uptake
Uptake in liver, pancreas, spleen, intestines, and thyroid (PET) ([4]; healthy elderly human subject): High uptake
Clearance from the cortical brain region between 50 minutes and 90 minutes ([5]; healthy elderly subject): little clearance
Clearance from the cortical brain region between 50 minutes and 90 minutes [5, 9]: little clearance
Brain penetration (in words) ([6]; five normal male mice, IV, 1 hour): brain penetrant
SUV, Prostate [6, 11]: 0.47 SUV and 0.85 SUV and 0.44 SUV
SUV, Seminal Vesicle [6, 11]: 1.397 SUV and 2.588 SUV and 1.09 SUV
SUV, Bladder, Average [6, 8]: 1.39 SUV
SUV, Blood, Average [6, 8]: 0.57 ± 0.25 SUV
SUV, Bone, Average [6, 8]: 0.76 ± 0.34 SUV
SUV, Brain Stem, Average [6, 8]: 0.25 ± 0.09 SUV
SUV, Caudate Nuclei, Average [6, 8]: 0.37 ± 0.23 SUV
SUV, Cerebellum, Average [6, 8]: 0.31 ± 0.14 SUV
SUV, Cortex, Average [6, 8]: 0.19 ± 0.07 SUV
SUV, Heart, Average [6, 8]: 1.12 ± 0.23 SUV
SUV, Hippocampus, Average [6, 8]: 0.48 ± 0.37 SUV
SUV, Liver, Average [6, 8]: 6.0±1.9 SUV and 5.97 ± 1.92 SUV
SUV, Lung, Average [6, 8]: 2.06 ± 0.62 SUV
SUV, Muscle, Average [6, 8]: 0.21 ± 0.08 SUV
SUV, Pancreas, Average [6, 8]: 8.8±3.2 SUV and 8.78 ± 3.22 SUV
SUV, Prostate, Average [6, 8]: 0.58 ± 0.23 SUV
SUV, Seminal Vesicle, Average [6, 8]: 1.69 ± 0.79 SUV
SUV, Spleen, Average [6, 8]: 2.30 ± 1.01 SUV
SUV, Thalamus, Average [6, 8]: 0.26 ± 0.10 SUV
SUV, Upper Intestine, Average [6, 8]: 4.7±2.1 SUV and 4.72 ± 2.18 SUV
SUV, Whole Brain, Average [6, 8]: 0.24 ± 0.09 SUV
SUV, Pancreas, Average [6, 12]: 8.8±3.2 SUV
SUV, Whole Brain, Average [6, 12]: 0.24±0.09 SUV
SUV, Blood, Average [6, 13]: 0.57 SUV
SUV, Bone, Average [6, 13]: 0.76 SUV
SUV, Brain Stem, Average [6, 13]: 0.25 SUV
SUV, Caudate Nuclei, Average [6, 13]: 0.37 SUV
SUV, Cerebellum, Average [6, 13]: 0.31 SUV
SUV, Cortex, Average [6, 13]: 0.19 SUV
SUV, Heart, Average [6, 13]: 1.12 SUV
SUV, Hippocampus, Average [6, 13]: 0.48 SUV
SUV, Kidney, Average [6, 13]: 4.21 SUV
SUV, Liver, Average [6, 13]: 5.97 SUV
SUV, Lung, Average [6, 13]: 2.06 SUV
SUV, Muscle, Average [6, 13]: 0.21 SUV
SUV, Pancreas, Average [6, 13]: 8.78 SUV
SUV, Prostate, Average [6, 13]: 0.58 SUV
SUV, Seminal Vesicle, Average [6, 13]: 1.69 SUV
SUV, Spleen, Average [6, 13]: 2.3 SUV
SUV, Thalamus, Average [6, 13]: 0.26 SUV
SUV, Upper Intestine, Average [6, 13]: 4.72 SUV
SUV, Whole Brain, Average [6, 13]: 0.24 SUV
SMILES: O=C([O-])CC(O)(CC(=O)[O-])C(=O)[O-].O=C([O-])CC(O)(CC(=O)[O-])C(=O)[O-].[63Zn+2].[63Zn+2].[63Zn+2] [^63Zn citrate]
Differences in SUVs between intracerebral regions (ANOVA) ([3]; normal mice, 1 hour): did not show statistically significant differences
Vascular clearance phase in cerebral cortical region of interest ([5]; healthy elderly subject): rapid vascular clearance phase in the first minute
Vascular clearance phase in cerebral cortical region of interest [5, 9]: rapid vascular clearance phase in the first minute
SUV, Bladder [6, 10]: 1.27 SUV and 3.66 SUV and 1.13 SUV and 0.73 SUV and 0.18 SUV
SUV, Blood [6, 10]: 0.47 SUV and 0.36 SUV and 0.94 SUV and 0.69 SUV and 0.38 SUV
SUV, Bone [6, 10]: 0.72 SUV and 0.5 SUV and 1.11 SUV (2×) and 0.38 SUV
SUV, Brain Stem [6, 10]: 0.25 SUV (2×) and 0.34 SUV and 0.32 SUV and 0.11 SUV
SUV, Caudate Nuclei [6, 10]: 0.34 SUV and 0.23 SUV and 0.57 SUV and 0.63 SUV and 0.09 SUV
SUV, Cerebellum [6, 10]: 0.27 SUV (2×) and 0.38 SUV and 0.49 SUV and 0.13 SUV
SUV, Cortex [6, 10]: 0.2 SUV (2×) and 0.19 SUV and 0.27 SUV and 0.09 SUV
SUV, Heart [6, 10]: 1.11 SUV (2×) and 1.47 SUV and 1.1 SUV and 0.82 SUV
SUV, Hippocampus [6, 10]: 0.28 SUV and 0.24 SUV and 0.88 SUV and 0.87 SUV and 0.12 SUV
SUV, Kidney [6, 10]: 3.8 SUV and 4.32 SUV and 6.01 SUV and 4.49 SUV and 2.42 SUV
SUV, Liver [6, 10]: 6.18 SUV and 5.27 SUV and 8.72 SUV and 6.29 SUV and 3.4 SUV
SUV, Lung [6, 10]: 2.67 SUV and 1.8 SUV and 2.54 SUV and 2.19 SUV and 1.13 SUV
SUV, Muscle [6, 10]: 0.2 SUV and 0.19 SUV and 0.31 SUV and 0.26 SUV and 0.1 SUV
SUV, Pancreas [6, 10]: 10.67 SUV and 5.25 SUV and 11.95 SUV and 10.68 SUV and 5.33 SUV
SUV, Spleen [6, 10]: 2.37 SUV and 1.8 SUV and 3.71 SUV and 2.62 SUV and 0.97 SUV
SUV, Thalamus [6, 10]: 0.29 SUV and 0.25 SUV and 0.38 SUV and 0.28 SUV and 0.11 SUV
SUV, Upper Intestine [6, 10]: 3.02 SUV and 2.99 SUV and 7.66 SUV and 6.46 SUV and 3.47 SUV
SUV, Whole Brain [6, 10]: 0.25 SUV and 0.23 SUV and 0.35 SUV and 0.3 SUV and 0.1 SUV

SMILES: [65Zn] [^65Zn]
Zinc uptake in brain relative to the other metal ions measured [7]: several fold higher
